From patent US20080009418A1, “Selective Inhibitors” (Alchemia LTD., priority 2004, published 2008)

Tests used:
Human neurokinin (NK1) = biological target: T1, Human neurokinin (NK1) (Homo sapiens, UniProt P25103); experiment: Radioligand binding, human neurokinin NK1 membranes, filtration, [125I]-Substance P; details: compound at 10 μM; [125I]-Substance P
T1 construct: purchased Perkin Elmer Biosignal
Method in brief: (§1)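 Percent inhibition of radioligand binding measured on recombinant human membranes: NK1 with [125I]-Substance P, KOP with [3H]-Diprenorphine. Incubation 1 h at room temperature, then harvest onto 0.3% PEI-soaked filters, cold Tris-HCl pH 7.4 washes and scintillation counting; non-specific binding from reference ligand wells.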

Human opioid (ORL1) = biological target: T2, Human opioid (ORL1) (Homo sapiens, UniProt P41146); experiment: Radioligand binding, human opioid ORL1 membranes, FlashPlate, [125I]-Nociceptin; details: compound at 10 μM; [125I]-Nociceptin
T2 construct: purchased Perkin Elmer Biosignal
T2 sequence (P41146 whole entry): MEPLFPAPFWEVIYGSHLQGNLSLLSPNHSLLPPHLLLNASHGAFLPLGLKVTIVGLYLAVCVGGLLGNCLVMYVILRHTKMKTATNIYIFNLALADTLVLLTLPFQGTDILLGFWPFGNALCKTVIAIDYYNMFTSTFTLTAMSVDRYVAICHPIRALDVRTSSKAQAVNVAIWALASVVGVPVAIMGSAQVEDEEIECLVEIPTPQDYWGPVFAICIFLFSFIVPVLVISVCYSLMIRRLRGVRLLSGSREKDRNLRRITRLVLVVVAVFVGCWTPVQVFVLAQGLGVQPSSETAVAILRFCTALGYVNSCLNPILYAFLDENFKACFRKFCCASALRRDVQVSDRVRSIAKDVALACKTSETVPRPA
Method in brief: (§2)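 Cloned human receptor membranes were coated onto FlashPlate wells and incubated with radioligand and compound (added from a 0.5 mM DMSO daughter plate) for 1 hour at room temperature in the dark. Scintillation counting gave percent inhibition, with DMSO defining total and reference ligand defining non-specific binding.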

Human μ-opioid (MOP) = biological target: T3, Human μ-opioid (MOP) (Homo sapiens, UniProt P35372); experiment: Radioligand binding, human μ-opioid (MOP) membranes, FlashPlate, [3H]-Naloxone; details: compound at 10 μM; [3H]-Naloxone
T3 construct: purchased Perkin Elmer Biosignal
T3 sequence (P35372 whole entry): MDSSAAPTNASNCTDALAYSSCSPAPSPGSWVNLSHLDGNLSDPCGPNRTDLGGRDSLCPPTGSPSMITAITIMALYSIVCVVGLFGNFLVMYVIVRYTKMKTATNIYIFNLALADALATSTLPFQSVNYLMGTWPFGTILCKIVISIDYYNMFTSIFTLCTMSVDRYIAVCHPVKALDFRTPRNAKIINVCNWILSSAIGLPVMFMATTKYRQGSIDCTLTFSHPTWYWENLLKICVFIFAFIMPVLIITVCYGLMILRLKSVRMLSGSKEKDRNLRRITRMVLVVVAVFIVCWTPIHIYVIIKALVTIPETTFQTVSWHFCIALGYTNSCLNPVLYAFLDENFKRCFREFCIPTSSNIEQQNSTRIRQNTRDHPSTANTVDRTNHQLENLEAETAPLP
Method in brief: as §2

Human δ-opioid (DOP) = biological target: T4, Human δ-opioid (DOP) (Homo sapiens, UniProt P41143); experiment: Radioligand binding, human δ-opioid (DOP) membranes, FlashPlate, [3H]-Bremazocine; details: compound at 10 μM; [3H]-Bremazocine
T4 construct: purchased Perkin Elmer Biosignal
T4 sequence (P41143 whole entry): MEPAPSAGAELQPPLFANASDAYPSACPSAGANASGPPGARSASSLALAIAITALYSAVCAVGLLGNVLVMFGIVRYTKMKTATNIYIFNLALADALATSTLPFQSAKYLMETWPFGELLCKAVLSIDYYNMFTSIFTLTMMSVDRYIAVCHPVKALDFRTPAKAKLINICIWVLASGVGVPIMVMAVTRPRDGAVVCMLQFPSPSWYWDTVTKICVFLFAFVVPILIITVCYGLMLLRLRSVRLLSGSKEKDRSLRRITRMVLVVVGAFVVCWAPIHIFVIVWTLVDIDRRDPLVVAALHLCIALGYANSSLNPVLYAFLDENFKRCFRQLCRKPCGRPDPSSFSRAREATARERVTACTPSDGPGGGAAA
Method in brief: as §2

[1] = biological target: T5, Human neuropeptide Y (NPY-Y1) (Homo sapiens, UniProt P25929); experiment: Radioligand binding, human neuropeptide Y NPY-Y1 membranes, FlashPlate, [125I]-PYY; details: compound at 10 μM; [125I]-PYY
T5 construct: purchased Perkin Elmer Biosignal
T5 sequence (P25929 1-384): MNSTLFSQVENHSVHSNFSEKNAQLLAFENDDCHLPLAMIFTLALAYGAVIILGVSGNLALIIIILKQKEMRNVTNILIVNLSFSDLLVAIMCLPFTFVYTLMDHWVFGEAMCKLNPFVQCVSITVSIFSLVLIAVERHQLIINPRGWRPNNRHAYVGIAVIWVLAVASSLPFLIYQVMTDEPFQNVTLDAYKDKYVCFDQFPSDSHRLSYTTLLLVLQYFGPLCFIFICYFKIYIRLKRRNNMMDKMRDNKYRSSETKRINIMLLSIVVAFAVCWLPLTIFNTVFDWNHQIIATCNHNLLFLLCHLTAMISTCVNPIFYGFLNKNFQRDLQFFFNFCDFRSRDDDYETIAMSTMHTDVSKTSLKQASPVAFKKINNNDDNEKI
Method in brief: as §2

Human Melanocortin (MC4) = biological target: T6, Human Melanocortin (MC4) (Homo sapiens, UniProt P32245); experiment: Radioligand binding, human melanocortin MC4 membranes, FlashPlate, [125I]-NDP-αMSH; details: compound at 10 μM; [125I]-NDP-αMSH
T6 construct: purchased Perkin Elmer Biosignal
T6 sequence (P32245 whole entry): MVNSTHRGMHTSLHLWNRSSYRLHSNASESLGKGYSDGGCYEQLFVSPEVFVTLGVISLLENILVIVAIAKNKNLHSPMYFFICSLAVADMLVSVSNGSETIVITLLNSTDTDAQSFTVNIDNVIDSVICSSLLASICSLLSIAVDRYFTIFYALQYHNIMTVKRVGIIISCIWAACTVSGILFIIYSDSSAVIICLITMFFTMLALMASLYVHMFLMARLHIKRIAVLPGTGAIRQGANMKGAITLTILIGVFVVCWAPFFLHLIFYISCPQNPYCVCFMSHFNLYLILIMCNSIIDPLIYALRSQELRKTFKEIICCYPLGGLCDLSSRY
Method in brief: as §2

Human Melanocortin (MC3) = biological target: T7, Human Melanocortin (MC3) (Homo sapiens, UniProt P41968); experiment: Radioligand binding, human melanocortin MC3 membranes, FlashPlate, [125I]-NDP-αMSH; details: compound at 10 μM; [125I]-NDP-αMSH
T7 construct: purchased Perkin Elmer Biosignal
T7 sequence (P41968 whole entry): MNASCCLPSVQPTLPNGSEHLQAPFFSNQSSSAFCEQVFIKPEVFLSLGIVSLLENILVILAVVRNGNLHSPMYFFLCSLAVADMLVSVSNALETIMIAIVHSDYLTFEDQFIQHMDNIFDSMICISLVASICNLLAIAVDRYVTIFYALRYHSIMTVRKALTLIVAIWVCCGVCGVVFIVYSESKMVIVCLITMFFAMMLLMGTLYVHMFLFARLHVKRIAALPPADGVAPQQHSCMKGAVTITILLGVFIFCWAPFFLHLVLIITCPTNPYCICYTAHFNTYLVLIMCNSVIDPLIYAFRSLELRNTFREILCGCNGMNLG
Method in brief: as §2

Human melanocortin (MC5) = biological target: T8, Human melanocortin (MC5) (Homo sapiens, UniProt P33032); experiment: Radioligand binding, human melanocortin MC5 membranes, FlashPlate, [125I]-NDP-αMSH; details: compound at 10 μM; [125I]-NDP-αMSH
T8 construct: purchased Perkin Elmer Biosignal
T8 sequence (P33032 whole entry): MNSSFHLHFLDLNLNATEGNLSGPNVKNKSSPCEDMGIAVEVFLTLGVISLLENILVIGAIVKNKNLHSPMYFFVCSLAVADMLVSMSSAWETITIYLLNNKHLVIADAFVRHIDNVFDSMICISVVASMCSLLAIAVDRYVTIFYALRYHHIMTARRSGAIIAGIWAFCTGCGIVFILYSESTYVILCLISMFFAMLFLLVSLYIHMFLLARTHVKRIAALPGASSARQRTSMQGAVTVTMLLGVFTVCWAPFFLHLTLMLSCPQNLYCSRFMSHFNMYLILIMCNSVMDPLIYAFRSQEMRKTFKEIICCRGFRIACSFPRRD
Method in brief: as §2

Human κ-Opioid (KOP) = biological target: T9, Human κ-Opioid (KOP) (Homo sapiens, UniProt P41145); experiment: Radioligand binding, human κ-opioid (KOP) membranes, filtration, [3H]-Diprenorphine; details: compound at 10 μM; [3H]-Diprenorphine
T9 construct: purchased Perkin Elmer Biosignal
T9 sequence (P41145 whole entry): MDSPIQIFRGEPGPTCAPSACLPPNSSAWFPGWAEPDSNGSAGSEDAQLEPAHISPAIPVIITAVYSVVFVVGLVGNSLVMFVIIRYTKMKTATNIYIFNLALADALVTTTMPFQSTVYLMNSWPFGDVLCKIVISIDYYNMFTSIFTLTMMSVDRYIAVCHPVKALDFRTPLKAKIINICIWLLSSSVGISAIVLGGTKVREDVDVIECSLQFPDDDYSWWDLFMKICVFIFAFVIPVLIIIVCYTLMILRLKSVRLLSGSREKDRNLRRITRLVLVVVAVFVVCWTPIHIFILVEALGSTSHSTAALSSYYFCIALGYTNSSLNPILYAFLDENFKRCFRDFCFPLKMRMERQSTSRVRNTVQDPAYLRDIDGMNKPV
Method in brief: as §1

[2] = biological target: T10, Human melanin-concentrating hormone (MCH1) (Homo sapiens, UniProt Q99705); experiment: Radioligand binding, human melanin-concentrating hormone MCH1 membranes, FlashPlate, [125I]-S36057; details: compound at 10 μM; [125I]-S36057
T10 construct: purchased Perkin Elmer Biosignal
T10 sequence (Q99705 whole entry): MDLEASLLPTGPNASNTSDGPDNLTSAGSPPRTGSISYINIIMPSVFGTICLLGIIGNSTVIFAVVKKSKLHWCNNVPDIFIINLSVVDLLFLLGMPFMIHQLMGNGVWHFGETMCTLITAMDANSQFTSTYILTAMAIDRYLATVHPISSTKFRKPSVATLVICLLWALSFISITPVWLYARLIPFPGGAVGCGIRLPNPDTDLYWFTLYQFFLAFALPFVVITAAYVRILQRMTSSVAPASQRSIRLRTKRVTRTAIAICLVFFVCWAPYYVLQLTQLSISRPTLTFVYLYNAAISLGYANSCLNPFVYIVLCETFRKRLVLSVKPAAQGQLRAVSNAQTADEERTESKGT
Method in brief: as §2

Mouse urotensin (mUR2) = biological target: T11, Mouse urotensin (mUR2) (Mus musculus, UniProt Q8VIH9); experiment: Radioligand binding, mouse urotensin mUR2 membranes, FlashPlate, [125I]-Urotensin II; details: compound at 10 μM; [125I]-Urotensin II
T11 construct: purchased Perkin Elmer Biosignal
T11 sequence (Q8VIH9 1-385): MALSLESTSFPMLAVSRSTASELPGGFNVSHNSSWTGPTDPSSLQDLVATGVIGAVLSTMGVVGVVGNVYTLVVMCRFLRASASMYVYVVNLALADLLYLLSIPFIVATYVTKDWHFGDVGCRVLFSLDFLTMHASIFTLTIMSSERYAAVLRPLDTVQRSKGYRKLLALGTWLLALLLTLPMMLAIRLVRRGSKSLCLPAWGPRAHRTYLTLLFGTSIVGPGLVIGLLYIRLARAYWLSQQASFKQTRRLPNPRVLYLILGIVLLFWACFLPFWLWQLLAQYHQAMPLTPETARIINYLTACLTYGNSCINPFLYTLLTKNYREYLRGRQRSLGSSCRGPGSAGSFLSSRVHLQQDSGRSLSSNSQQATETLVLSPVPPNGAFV
Method in brief: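 Cloned mouse urotensin (mUR2) receptor membranes from Perkin Elmer Biosignal were immobilized in FlashPlate microplates using a proprietary coating. Each well got 19.5 μl buffer, then 0.5 μl of DMSO, reference ligand, or compound. Adding 5 μl of [125I]-Urotensin II, diluted to 5× final concentration in binding buffer, started binding. Plates were sealed with TopSeal-A and incubated 1 hour at room temperature in the dark. Wells were counted for 30 seconds each on a TopCount after a 60-second delay, and percentage inhibition was calculated.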

T1 sequence (P25103 whole entry): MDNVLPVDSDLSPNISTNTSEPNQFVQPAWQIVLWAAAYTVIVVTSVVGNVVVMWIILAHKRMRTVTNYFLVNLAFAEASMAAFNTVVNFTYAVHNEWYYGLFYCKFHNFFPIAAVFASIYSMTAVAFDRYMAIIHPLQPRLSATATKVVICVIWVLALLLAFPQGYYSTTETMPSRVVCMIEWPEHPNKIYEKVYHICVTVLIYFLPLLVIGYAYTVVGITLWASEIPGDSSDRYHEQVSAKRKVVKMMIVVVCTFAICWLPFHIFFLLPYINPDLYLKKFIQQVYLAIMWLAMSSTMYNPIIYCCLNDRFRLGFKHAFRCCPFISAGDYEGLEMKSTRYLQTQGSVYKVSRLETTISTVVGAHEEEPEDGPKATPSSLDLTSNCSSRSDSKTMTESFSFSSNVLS

Structure (SMILES) | A8 radioligand binding, percentage inhibition (Human neurokinin (NK1)) | A10 radioligand binding, percentage inhibition (Human opioid (ORL1)) | A7 radioligand binding, percentage inhibition (Human μ-opioid (MOP)) | A1 radioligand binding, percentage inhibition (Human δ-opioid (DOP)) | A9 radioligand binding, percentage inhibition [1] | A4 radioligand binding, percentage inhibition (Human Melanocortin (MC4)) | A3 radioligand binding, percentage inhibition (Human Melanocortin (MC3)) | A5 radioligand binding, percentage inhibition (Human melanocortin (MC5)) | A2 radioligand binding, percentage inhibition (Human κ-Opioid (KOP)) | A6 radioligand binding, percentage inhibition [2] | A11 radioligand binding, percentage inhibition (Mouse urotensin (mUR2))
CO[C@H]1[C@H](O)[C@@H](COCc2ccccc2)OC(OCCNC(=N)N)[C@@H]1NC(=O)c1c[nH]c2ccccc12 (stereo partly shown) [compound 125] | + (“+” indicates greater than 50% inhibition at 10 μM) | − (“−” indicates less than 50% inhibition at 10 μM) | − (“−” indicates less than 50% inhibition at 10 μM) | − (“−” indicates less than 50% inhibition at 10 μM) | − (“−” indicates less than 50% inhibition at 10 μM) | − (“−” indicates less than 50% inhibition at 10 μM) | − (“−” indicates less than 50% inhibition at 10 μM) | − (“−” indicates less than 50% inhibition at 10 μM) | − (“−” indicates less than 50% inhibition at 10 μM) | − (“−” indicates less than 50% inhibition at 10 μM) | − (“−” indicates less than 50% inhibition at 10 μM)
[N-]=[N+]=N[C@H]1C(OCCNC(=N)N)O[C@H](COCc2ccc3ccccc3c2)[C@@H](O)[C@@H]1OCc1ccccc1 (stereo partly shown) [compound 126] | + (“+” indicates greater than 50% inhibition at 10 μM) | − (“−” indicates less than 50% inhibition at 10 μM) | − (“−” indicates less than 50% inhibition at 10 μM) | − (“−” indicates less than 50% inhibition at 10 μM) | − (“−” indicates less than 50% inhibition at 10 μM) | + (“+” indicates greater than 50% inhibition at 10 μM) | − (“−” indicates less than 50% inhibition at 10 μM) | + (“+” indicates greater than 50% inhibition at 10 μM) | − (“−” indicates less than 50% inhibition at 10 μM) | + (“+” indicates greater than 50% inhibition at 10 μM) | − (“−” indicates less than 50% inhibition at 10 μM)
[N-]=[N+]=N[C@H]1C(OCCNC(=N)N)O[C@H](COCc2ccccc2)[C@@H](O)[C@@H]1OCc1ccc2ccccc2c1 (stereo partly shown) [compound 127] | + (“+” indicates greater than 50% inhibition at 10 μM) | − (“−” indicates less than 50% inhibition at 10 μM) | − (“−” indicates less than 50% inhibition at 10 μM) | − (“−” indicates less than 50% inhibition at 10 μM) | − (“−” indicates less than 50% inhibition at 10 μM) | + (“+” indicates greater than 50% inhibition at 10 μM) | − (“−” indicates less than 50% inhibition at 10 μM) | + (“+” indicates greater than 50% inhibition at 10 μM) | − (“−” indicates less than 50% inhibition at 10 μM) | − (“−” indicates less than 50% inhibition at 10 μM) | − (“−” indicates less than 50% inhibition at 10 μM)
COC1O[C@H](COCC(=O)O)[C@@H](O)[C@H](OCc2ccccc2)[C@H]1NC(=O)c1cnc[nH]1 (stereo partly shown) [compound 128] | + (“+” indicates greater than 50% inhibition at 10 μM) | − (“−” indicates less than 50% inhibition at 10 μM) | − (“−” indicates less than 50% inhibition at 10 μM) | − (“−” indicates less than 50% inhibition at 10 μM) | − (“−” indicates less than 50% inhibition at 10 μM) | − (“−” indicates less than 50% inhibition at 10 μM) | − (“−” indicates less than 50% inhibition at 10 μM) | − (“−” indicates less than 50% inhibition at 10 μM) | − (“−” indicates less than 50% inhibition at 10 μM) | − (“−” indicates less than 50% inhibition at 10 μM) | − (“−” indicates less than 50% inhibition at 10 μM)
COC[C@H]1OC(OCc2ccc(-c3ccccc3)cc2)[C@H](NC(=O)CNC(=N)N)[C@@H](OCc2cccc(O)c2)[C@@H]1O (stereo partly shown) [compound 129] | − (“−” indicates less than 50% inhibition at 10 μM) | − (“−” indicates less than 50% inhibition at 10 μM) | + (“+” indicates greater than 50% inhibition at 10 μM) | − (“−” indicates less than 50% inhibition at 10 μM) | − (“−” indicates less than 50% inhibition at 10 μM) | − (“−” indicates less than 50% inhibition at 10 μM) | − (“−” indicates less than 50% inhibition at 10 μM) | − (“−” indicates less than 50% inhibition at 10 μM) | − (“−” indicates less than 50% inhibition at 10 μM) | − (“−” indicates less than 50% inhibition at 10 μM) | − (“−” indicates less than 50% inhibition at 10 μM)
